Assay results as given in patent US5480905A, “Benzodioxane derivatives” (Chugai Seiyaku Kabushiki Kaisha, priority 1991, dated 1996).
Entries after “also recorded” stand apart in the source; their conditions may differ.

How the values were obtained:
serotonin 1A receptor = target: T1, serotonin 1A receptor (Rattus norvegicus, UniProt P19327); assay: Serotonin 1A receptor binding experiment (3H-8-OH-DPAT); conditions: rat cortex and hippocampal tissue; 0.5 nM 3H-8-OH-DPAT; IC50 in M; read-out: -logIC50 5-HT1A (converted)
T1 construct: the cortex and hippocampal tissue were extracted from the brain; from tissue; host or cells: brain cortex and hippocampus of 7-week-old male S.D. rats, washed membrane homogenate
T1 sequence (P19327 1-422): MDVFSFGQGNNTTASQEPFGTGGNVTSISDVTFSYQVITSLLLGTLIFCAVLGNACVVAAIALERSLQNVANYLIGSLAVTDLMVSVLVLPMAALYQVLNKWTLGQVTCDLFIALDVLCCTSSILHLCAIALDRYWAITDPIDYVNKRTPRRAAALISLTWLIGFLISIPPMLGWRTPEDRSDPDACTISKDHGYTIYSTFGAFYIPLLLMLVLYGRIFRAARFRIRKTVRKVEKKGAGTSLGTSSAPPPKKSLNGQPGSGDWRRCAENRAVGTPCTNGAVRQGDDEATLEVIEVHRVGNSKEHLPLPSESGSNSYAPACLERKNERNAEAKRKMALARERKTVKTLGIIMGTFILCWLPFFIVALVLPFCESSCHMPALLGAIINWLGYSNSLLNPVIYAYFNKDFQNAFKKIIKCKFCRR
Experimental: (§1) Affinity for intracerebral serotonin 1A and serotonin 2 receptor was checked in accordance with the method of Hall et al. (J. Neurochem., 44, 1685-1695, 1985) and the method of Leysen et al. (Mol. Pharmacol., 21, 301-314, 1982).
(§2) Stated more specifically, the cortex and hippocampal tissue were extracted from the brain of 7-wk old S.D. line male rats, mixed with 20 volumes of Tris-HCl buffer (50 mM, pH 7.7) and homogenized with a Teflon homogenizer. Thereafter, the homogenate was centrifuged at 39800×g for 20 min and the supernatant was discarded. Forty volumes of a buffer were added to the precipitate and the mixture was homogenized with a Polytron homogenizer, with the homogenate being centrifuged under the same condition as set forth above. The same procedure was repeated two more times and the final precipitate was homogenized with 40 volumes of a buffer; thereafter, the homogenate was stored at least overnight at -80° C. On the day when binding experiments were to be conducted, the homogenate was thawed at room temperature and incubated at 37° C. for 20 min to remove the endogenous serotonin.
(§3) Thereafter, centrifugation was conducted at 39800×g for 20 min and 40 volumes of a buffer were added to the precipitate, followed by homogenization. This procedure was repeated three times; to the final precipitate, a buffer was added in 65 volumes for the case of serotonin 1A receptor and in 80 volumes for the case of serotonin 2 receptor and the mixture was homogenized in preparation for the binding experiments that are described below. All procedures of experimentation except storage in a frozen state and thawing at room temperature were conducted at 4° C. or below.
A reaction solution containing 0.5 nM (final concentration) of 3H-8-hydroxy-2-(di-n-propylamino)tetralin (8-OH-DPAT), […] and 500 μl of brain homogenate in 1.0 ml (final volume) of a buffer was incubated at 25° C. for 30 min. Thereafter, the reaction solution was filtered by rapid passage through a glass filler. The filter was washed rapidly with an ice-cooled buffer (3 ml) three times, put into a scintillation vial together with a scintillation cocktail, and left to stand overnight at 4° C. On the next day, the vial was agitated well and measurements were conducted with a scintillation counter. To determine the amount of specific binding, the amount of binding in the presence of excess unlabeled serotonin (10 μM) was subtracted from the total amount of binding. As an index for the affinity of a test compound for either receptor, the concentration at which the specific binding of ^3 H-DPAT was inhibited by 50% (IC50, M) was determined using computer software EBDA/LIGAND (Biosoft).

S.D. line male rats [1] = assay: Antidepressant effect, compelled swim test (Porsolt), time over which rats remain motionless; assay type: in vivo, rat; set-up: Antidepressant effect / Antidepressant effect, longevity: scale not given here; conditions: for inhibition in vivo at 20 mg/kg / ED50: Rattus norvegicus, po, 0.5 h; for inhibition in vivo at 20 mg/kg: 30 min before swim, read-out: Antidepressant effect, Efficacy; for ED50: peroral, probit method, read-out: ED50, dose reducing motionless time by one half vs control
Experimental: An antidepression test was conducted in accordance with the method of Porsolt et al. (Europ. J. Pharmacol., 47, 379-391, 1978). Stated more specifically, 7-wk old S.D. line male rats were placed in a glass cylinder (18 cm^.phi. ×40 cm^H) for 15 min. The cylinder was filled with water (25° C.) to a depth of 15 cm. Thereafter, the rats were placed in a hot environment (32° C.) for 15 min before they were returned to the cage. Twenty-four hours later, the rats were compelled again to swim in the same cylinder for 5 min and the total time over which the rats remained motionless was measured. A test drug was administered perorally to each animal 30 min before it was compelled to swim for 5 min. Antidepressant agents are known to be capable of specifically reducing the time over which the rats would remain motionless (Psyehopharmaeol., 83, 1-16, 1984, and ibid., 94, 147-160, 1988). The antidepressant effect was calculated by the following formula: [formula]
The procedure of Test Examples 2 and 3 were repeated except that test compounds were administered perorally in a dose of 10 mg/kg.
The procedures of Test Example 2 and 3 were repeated, except that test compounds were administered perorally in a dose of 20 mg/kg to check the longevity of their antianxiety and antidepressant effects for 0.5, 2 and 4 h.

serotonin 2 receptor = target: T2, serotonin 2 receptor (Rattus norvegicus, UniProt P14842); assay: Serotonin 2 receptor binding experiment (3H-ketancerine); conditions: rat cortex and hippocampal tissue; 0.5 nM 3H-ketancerine; IC50 in M; read-out: -logIC50 5-HT2 (converted)
T2 construct: the cortex and hippocampal tissue were extracted from the brain; from tissue; host or cells: brain cortex and hippocampus of 7-week-old male S.D. rats, washed membrane homogenate
T2 sequence (P14842 whole entry): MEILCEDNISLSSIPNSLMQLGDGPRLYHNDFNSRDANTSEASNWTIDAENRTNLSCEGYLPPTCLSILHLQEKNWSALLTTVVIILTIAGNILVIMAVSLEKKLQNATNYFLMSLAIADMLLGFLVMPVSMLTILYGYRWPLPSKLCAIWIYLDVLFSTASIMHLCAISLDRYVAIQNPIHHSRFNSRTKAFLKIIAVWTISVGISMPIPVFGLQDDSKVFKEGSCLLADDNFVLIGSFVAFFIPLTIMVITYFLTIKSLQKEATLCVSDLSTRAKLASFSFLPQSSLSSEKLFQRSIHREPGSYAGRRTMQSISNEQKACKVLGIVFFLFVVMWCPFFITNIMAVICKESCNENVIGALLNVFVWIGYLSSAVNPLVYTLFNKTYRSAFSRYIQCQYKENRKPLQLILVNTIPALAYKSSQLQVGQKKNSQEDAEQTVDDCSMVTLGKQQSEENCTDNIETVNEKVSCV
Experimental: as §1, §2, §3
A reaction solution containing 0.5 nM (final concentration) of ^3 H-ketancerine and 500 μl of brain homogenate in 1.0 ml (final volume) of a buffer was incubated at 30° C. for 30 min. Subsequent procedures were the same as in the serotonin 1A receptor binding experiment and IC50 (M) was determined accordingly. To determine the amount of specific binding, the amount of binding in the presence of excess unlabelled methysergide ([…]) was subtracted from the total amount of binding.

S.D. line male rats [2] = assay: Sedative action, amount of spontaneous movement (Animex); assay type: in vivo, rat; conditions: for Amount of Spontaneous Movement: control 405.2 ± 47.7; for Sedative action / spontaneous movement: peroral 20-60 mg/kg
Experimental: Seven-week old male S.D. line rats were administered a test drug perorally and after the passage of 30 min, the amount of spontaneous movement of the rats was measured for 10 min by means of Animex.

[3] = tested on: apomorphine induced stereotypic behavior; assay: Antidopamine action, apomorphine induced stereotypic behavior; assay type: in vivo, rat; conditions: for Apomorphine Induced Stereotypic Behavior, sum of scores: maximum of 24; for Antidopamine action: peroral, apomorphine 0.5 mg/kg s.c.
Experimental: Seven-week old male S.D. line rats were administered a test drug perorally and after the passage of 30 min, the dopamine agonist apomorphine was injected subcutaneously in an amount of 0.5 mg/kg. For the subsequent 5-30 min period, the intensity of stereotypic behavior that was induced in the rats by apomorphine was measured six times at 5-min intervals by a scoring method and the sum of the scores was determined (for a maximum of 24).

[4] = peroral 20 mg/kg, 0.5 h after administration
[5] = peroral 20 mg/kg, 2.0 h after administration
[6] = peroral 20 mg/kg, 4.0 h after administration
[7] = 20 mg/kg peroral, control 14.4 ± 0.9 (Comp. 1: 16.0 ± 1.1)

SMILES | IC50 (serotonin 1A receptor) [nM] | inhibition in vivo at 20 mg/kg (S.D. line male rats [1]; peroral 20 mg/kg) [%] | ED50 (S.D. line male rats [1]) [mg/kg] | Antidepressant effect (S.D. line male rats [1]; peroral 10 mg/kg) | Antidepressant effect (S.D. line male rats [1]; peroral 20 mg/kg) | Antidepressant effect, longevity (S.D. line male rats [1]; [4]) | Antidepressant effect, longevity (S.D. line male rats [1]; [5]) | Antidepressant effect, longevity (S.D. line male rats [1]; [6]) | Antidepressant activity relative to WY-50324 (ED50) (S.D. line male rats [1]; ratio of ED50) | IC50 (serotonin 2 receptor) [nM] | Amount of Spontaneous Movement (S.D. line male rats [2]; 20 mg/kg peroral) [Counts/10 min] | Amount of Spontaneous Movement (S.D. line male rats [2]; 40 mg/kg peroral) [Counts/10 min] | Amount of Spontaneous Movement (S.D. line male rats [2]; 60 mg/kg peroral) [Counts/10 min] | Sedative action / spontaneous movement (S.D. line male rats [2]) | Apomorphine Induced Stereotypic Behavior, sum of scores [3, 7] | Antidopamine action [3] | Apomorphine Induced Stereotypic Behavior, sum of scores ([3]; 10 mg/kg peroral, control 14.4 ± 0.9) | Apomorphine Induced Stereotypic Behavior, sum of scores ([3]; 40 mg/kg peroral, control 14.4 ± 0.9)
Cc1cccc2c1OC(CNCCNC(=O)C13CC4CC(CC(C4)C1)C3)CO2 (stereo not shown) [Compound 1, N-{[2-(8-methyl-1,4-benzodioxan-2-ylmethyl)amino]ethyl}tricyclo[3,3,1,1^3, ^7]decane-1-carboxyamide] | 1.17 | 72 ± 5.5 | 8.1 | 66.7 ± 12.6 | better antidepressant effects than WY-50324 | 71.8 | 73.9 | 40.7 | three times the activity of WY-50324 | 30.2 | 442.0 | 401.8 | 319.4 | no appreciable sedative action | 14.7 | no effect at all when it was used in a dose of 20 mg/kg; also recorded: no antidopamine action | – | –
O=C(NCCN1CCN(c2ncccn2)CC1)C12CC3CC(CC(C3)C1)C2 [WY-50324, reference compound] | 1.26 | 58.1 ± 5 | 24.3 | – | – | 56.7 | 17.3 | 0.7 | – | 200 | 315.5 | 361.9 | 401.6 | no appreciable sedative action | 12.1 | showed an inhibitory action in high doses | 14.7 | 10.9
